# Measured values reported in ChEMBL document CHEMBL1955725, “Structure-guided lead optimization of triazolopyrimidine-ring substituents identifies potent Plasmodium falciparum dihydroorotate dehydrogenase inhibitors with clinical candidate potential” (J Med Chem, 2011).
# Key:
# [1] = Oral bioavailability in Sprague-Dawley rat at 21.2 mg/kg; assay type: ADME, organism-based; settings: in vivo
# [2] = Plasma protein binding in Sprague-Dawley rat at 2 to 21.2 mg/kg, po; assay type: ADME, organism-based; design: dose 2-21.2 mg/kg, route oral; settings: read-out: PPB (converted)
# [3] = test system: Plasmodium falciparum; assay: Antimalarial activity against Plasmodium falciparum 3D7 0087/N9 infected in human RBC engrafted NOD-SCID IL-2Rgamma-null mouse assessed as reduction in parasitemia administered orally 3 days post infection qd for 4 days measured 24 hrs after final dose by FACS analysis; assay type: functional; settings: 3D7 0087/N9, po
# [4] = test system: Mus musculus; assay: AUC (0 to 10 hrs) in human RBC engrafted NOD-SCID IL-2Rgamma-null mouse at 5.7 mg/kg, po; assay type: ADME, organism-based, Plasma; design: time < 10 hr, dose 5.7 mg/kg, route oral; settings: in vivo
# [5] = Cmax in human RBC engrafted NOD-SCID IL-2Rgamma-null mouse infected with Plasmodium falciparum 3D7 0087/N9 at 5.7 mg/kg, po; assay type: ADME, organism-based; design: dose 5.7 mg/kg, route oral; settings: in vivo
# [6] = test system: Plasma; assay: Plasma protein binding in human by chromatographic method; assay type: ADME, cell-free
# [7] = test system: Plasma; assay: Plasma protein binding in human by ultracentrifugation method; assay type: ADME, cell-free
# [8] = test system: Liver microsomes; assay: Intrinsic clearance in human liver microsomes; assay type: ADME, Microsome
# [9] = test system: Plasmodium falciparum; assay: Antimalarial activity against drug-sensitive Plasmodium falciparum D6 by [3H]hypoxanthine incorporation assay in presence of human serum; assay type: functional, organism-based
# [10] = test system: Plasmodium falciparum; assay: Antimalarial activity against chloroquine and pyrimethamine-resistant Plasmodium falciparum K1 by [3H]hypoxanthine incorporation assay in presence of human serum; assay type: functional, organism-based
# [11] = test system: Plasmodium falciparum; assay: Antimalarial activity against drug-sensitive Plasmodium falciparum HB3 by [3H]hypoxanthine incorporation assay in presence of human serum; assay type: functional, organism-based
# [12] = test system: Plasmodium falciparum; assay: Antimalarial activity against chloroquine-resistant Plasmodium falciparum Dd2 by [3H]hypoxanthine incorporation assay in presence of human serum; assay type: functional, organism-based
# [13] = test system: Plasmodium falciparum; assay: Antimalarial activity against atovoquone-resistant Plasmodium falciparum TM90C2B by [3H]hypoxanthine incorporation assay in presence of human serum; assay type: functional, organism-based
# [14] = test system: Plasmodium falciparum; assay: Antimalarial activity against […] Plasmodium falciparum TM90C2A by [3H]hypoxanthine incorporation assay in presence of human serum; assay type: functional, organism-based
# [15] = test system: HepG2; assay: Cytotoxicity against human HepG2 cells; assay type: cell-based
# [16] = test system: L1210; assay: Cytotoxicity against mouse L1210 cells; assay type: cell-based
# [17] = Terminal elimination half life in Swiss outbred mouse at 0.4 mg/kg, po; assay type: ADME, organism-based; design: dose 0.4 mg/kg, route oral; settings: in vivo, read-out: beta t1/2 (converted)
# [18] = Terminal elimination half life in Swiss outbred mouse at 2 mg/kg, po; assay type: ADME, organism-based; design: dose 2 mg/kg, route oral; settings: in vivo, read-out: beta t1/2 (converted)
# [19] = Terminal elimination half life in Swiss outbred mouse at 10 mg/kg, po; assay type: ADME, organism-based; design: dose 10 mg/kg, route oral; settings: in vivo, read-out: beta t1/2 (converted)
# [20] = Cmax in Swiss outbred mouse at 0.4 mg/kg, po; assay type: ADME, organism-based; design: dose 0.4 mg/kg, route oral; settings: in vivo
# [21] = Cmax in Swiss outbred mouse at 2 mg/kg, po; assay type: ADME, organism-based; design: dose 2 mg/kg, route oral; settings: in vivo
# [22] = Cmax in Swiss outbred mouse at 10 mg/kg, po; assay type: ADME, organism-based; design: dose 10 mg/kg, route oral; settings: in vivo
# [23] = Cmax in Swiss outbred mouse at 50 mg/kg, po; assay type: ADME, organism-based; design: dose 50 mg/kg, route oral; settings: in vivo
# [24] = AUC (0 to infinity) in Swiss outbred mouse plasma at 0.4 mg/kg, po; assay type: ADME, organism-based; design: time infinity, dose 0.4 mg/kg, route oral
# [25] = AUC (0 to infinity) in Swiss outbred mouse plasma at 10 mg/kg, po; assay type: ADME, organism-based; design: time infinity, dose 10 mg/kg, route oral
# [26] = test system: Mus musculus; assay: Time plasma concentration remained above 1 uM in Swiss outbred mouse plasma at 0.4 mg/kg, po; assay type: ADME, organism-based; design: dose 0.4 mg/kg, route oral; settings: in vivo
# [27] = test system: Mus musculus; assay: Time plasma concentration remained above 1 uM in Swiss outbred mouse plasma at 10 mg/kg, po; assay type: ADME, organism-based; design: dose 10 mg/kg, route oral; settings: in vivo
# [28] = test system: Mus musculus; assay: Time plasma concentration remained above 1 uM in Swiss outbred mouse plasma at 50 mg/kg, po; assay type: ADME, organism-based; design: dose 50 mg/kg, route oral; settings: in vivo
# [29] = test system: Mus musculus; assay: AUC (0 to 48 hrs) in Swiss outbred mouse plasma at 50 mg/kg, po; assay type: ADME, organism-based; design: time < 48 hr, dose 50 mg/kg, route oral; settings: in vivo
# [30] = Clearance in Sprague-Dawley rat at 1 mg/kg, iv; assay type: ADME, organism-based; design: dose 1 mg/kg, route intravenous; settings: in vivo
# [31] = Clearance in Sprague-Dawley rat at 4.5 mg/kg, iv; assay type: ADME, organism-based; design: dose 4.5 mg/kg, route intravenous; settings: in vivo
# [32] = Terminal elimination half life in Sprague-Dawley rat at 1 mg/kg, iv; assay type: ADME, organism-based; design: dose 1 mg/kg, route intravenous; settings: in vivo, read-out: beta t1/2 (converted)
# [33] = Terminal elimination half life in Sprague-Dawley rat at 4.5 mg/kg, iv; assay type: ADME, organism-based; design: dose 4.5 mg/kg, route intravenous; settings: in vivo, read-out: beta t1/2 (converted)
# [34] = Volume of distribution in Sprague-Dawley rat at 1 mg/kg, iv; assay type: ADME, organism-based; design: dose 1 mg/kg, route intravenous; settings: in vivo
# [35] = Volume of distribution in Sprague-Dawley rat at 4.5 mg/kg, iv; assay type: ADME, organism-based; design: dose 4.5 mg/kg, route intravenous; settings: in vivo
# [36] = Cmax in Sprague-Dawley rat at 2 mg/kg, po; assay type: ADME, organism-based; design: dose 2 mg/kg, route oral; settings: in vivo
# [37] = Cmax in Sprague-Dawley rat at 21.2 mg/kg, po; assay type: ADME, organism-based; design: dose 21.2 mg/kg, route oral; settings: in vivo
# [38] = Terminal elimination half life in Sprague-Dawley rat at 2 mg/kg, po; assay type: ADME, organism-based; design: dose 2 mg/kg, route oral; settings: in vivo, read-out: beta t1/2 (converted)
# [39] = Terminal elimination half life in Sprague-Dawley rat at 21.2 mg/kg, po; assay type: ADME, organism-based; design: dose 21.2 mg/kg, route oral; settings: in vivo, read-out: beta t1/2 (converted)
# [40] = AUC (0 to infinity) in Sprague-Dawley rat at 2 mg/kg, po; assay type: ADME, organism-based; design: time infinity, dose 2 mg/kg, route oral; settings: plasma
# [41] = AUC (0 to infinity) in Sprague-Dawley rat at 21.2 mg/kg, po; assay type: ADME, organism-based; design: time infinity, dose 21.2 mg/kg, route oral; settings: plasma
# [42] = Oral bioavailability in Sprague-Dawley rat at 2 mg/kg; assay type: ADME, organism-based; settings: in vivo
# [43] = Inhibition of Plasmodium berghei C-terminal hexa-His tagged DHODH expressed in Escherichia coli by DCIP reduction assay
# [44] = test system: Plasmodium falciparum; assay: Antimalarial activity against Plasmodium falciparum 3D7 by [3H]hypoxanthine incorporation assay in presence of human serum; assay type: functional, organism-based
# [45] = test system: Plasmodium falciparum; assay: Antimalarial activity against Plasmodium falciparum 3D7 by [3H]hypoxanthine incorporation assay in presence of albumax; assay type: functional, organism-based
# [46] = Lipophilicity, log D of the compound at pH 7.4; assay type: physicochemical; settings: buffer
# [47] = Aqueous solubility of the compound at pH 6.5; assay type: physicochemical
# [48] = target: Dihydroorotate dehydrogenase (quinone), mitochondrial (Homo sapiens, UniProt Q02127)
# Description: Inhibition of human C-terminal hexa-His tagged DHODH expressed in Escherichia coli by DCIP reduction assay
# [49] = in vivo; settings: NOD-SCID IL-2Rgamma-null, mouse, po, 5.7 mg/kg
# [50] = in vivo; settings: NOD-SCID IL-2Rgamma-null, mouse, po, 5.7 mg/kg; remark: listed apart in the source
# [51] = in vivo; settings: Swiss outbred, mouse, po, 0.4 mg/kg
# [52] = in vivo; settings: Swiss outbred, mouse, po, 2 mg/kg
# [53] = in vivo; settings: Swiss outbred, mouse, po, 50 mg/kg
# [54] = in vivo; settings: Sprague-Dawley, rat, po, 2 mg/kg
# [55] = in vivo; settings: Sprague-Dawley, rat, po, 21.2 mg/kg
# [56] = Plasma protein binding in Swiss outbred mouse by ultracentrifugation; settings: read-out: PPB (converted)
# Dihydroorotate dehydrogenase (quinone), mitochondrial, sequence (Q02127 whole entry): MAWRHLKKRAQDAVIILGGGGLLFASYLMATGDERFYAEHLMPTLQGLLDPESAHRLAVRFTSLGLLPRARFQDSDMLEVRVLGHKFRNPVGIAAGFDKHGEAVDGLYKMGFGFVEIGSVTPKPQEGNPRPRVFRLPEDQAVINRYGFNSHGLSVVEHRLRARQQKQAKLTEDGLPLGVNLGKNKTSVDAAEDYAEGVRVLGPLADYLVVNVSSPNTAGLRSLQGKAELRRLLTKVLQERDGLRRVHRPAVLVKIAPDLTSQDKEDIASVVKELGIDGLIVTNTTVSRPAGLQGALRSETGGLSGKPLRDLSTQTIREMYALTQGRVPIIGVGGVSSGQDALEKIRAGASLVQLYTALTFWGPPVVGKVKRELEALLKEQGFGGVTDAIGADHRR
smiles,measurement,setting,value
Cc1cc(Nc2ccc(C(F)(F)F)cc2)n2nc(C(C)(F)F)nc2n1,bioavailability,[1],> 100%
same,fraction unbound,[2],0.058
same,ED50,[3],9.6 mg/kg
same,ED90,[3],26 mg/kg
same,AUC,[4],2521 µM·min
same,Cmax,[5],6.3 µM
same,PPB,[6],90.4%
same,PPB,[7],98.8%
same,Intrinsic clearance,[8],< 5 µL/min/mg
same,EC50,[9],12 nM
same,EC50,[10],16 nM
same,EC50,[11],7.9 nM
same,EC50,[12],13 nM
same,EC50,[13],4.6 nM
same,EC50,[14],7.9 nM
same,EC50,[15],> 50000 nM
same,EC50,[16],> 50000 nM
same,half-life,[17],2.1 h
same,half-life,[18],1.9 h
same,half-life,[19],1.6 h
same,Cmax,[20],0.2 µM
same,Cmax,[21],1.85 µM
same,Cmax,[22],9.86 µM
same,Cmax,[23],57 µM
same,AUC(0-inf),[24],0.667 µM·h
same,AUC(0-inf),[25],70.1 µM·h
same,Time,[26],0 h
same,Time,[27],14 h
same,Time,[28],14 h
same,AUC,[29],14815 µM·min
same,clearance,[30],23.2 mL/min/kg
same,clearance,[31],12.6 mL/min/kg
same,half-life,[32],6.1 h
same,half-life,[33],3.8 h
same,Vd,[34],3.3 L/kg
same,Vd,[35],2.9 L/kg
same,Cmax,[36],0.9 µM
same,Cmax,[37],11.4 µM
same,half-life,[38],6 h
same,half-life,[39],17 h
same,AUC(0-inf),[40],3.88 µM·h
same,AUC(0-inf),[41],342 µM·h
same,bioavailability,[42],97%
same,IC50,[43],2400 nM
same,EC50,[44],10 nM
same,EC50,[45],6.2 nM
same,logD,[46],3.3
same,solubility,[47],70 µM
same,IC50,[48],> 100000 nM
same,Tmax,[49],2.7 h
same,Tmax,[50],1.7 h
same,Tmax,[51],0.5 h
same,Tmax,[52],1 h
same,Tmax,[53],2 h
same,Tmax,[54],1 h
same,Tmax,[55],3.25 h
same,fraction unbound,[56],0.026
